Where no end group is shown, it is not given here.
Tests used:
[1] = system: transcription downstream TCF/LEF; assay: Washout TOPFlash assay; type: cell-based; settings: FIG. 18
Procedure: FIG. 18 presents wash out TOPFlash at 8, 12,18, and 24 hour time points: to investigate the effects of peptide 3 over time with a washout TOPFlash assay. To do this we followed the same procedure previously stated but performed washouts at 8, 12, 18, and 24 hour time points. This experiment was completed in duplicate.
FIG. 18 presents wash out TOPFlash at 8, 12,18, and 24 hour time points: to investigate the effects of peptide 3 over time with a washout TOPFlash assay. To do this we followed the same procedure previously stated but performed washouts at 8, 12, 18, and 24 hour time points.
This experiment was completed in duplicate.

[2] = system: transcription activity downstream TCF/LEF; assay: TOPFlash assay in HEK293 TCF/LEF luciferase cells stimulated with LiCl and Wnt3a, peptide treatment; type: cell-based; settings: peptide at 5 μM for 6 hours, FIG. 17
Procedure: FIG. 17 presents a TOPFlash assay to determine transcription activity downstream TCF/LEF: HEK293 cells containing a luciferase downstream TCF/LEF were LiCl was administered 16 hours prior to treatment to stimulate the Wnt pathway. Then the cells were treated with recombinant Wnt3a to stimulate transcription and peptide at 5 μM or BC-2059 at 0.5 μM for 6 hours before luciferase expression was quantified with the One-Step Luciferase assay system.
FIG. 22 presents TOPFlash assay to determine transcription activity downstream TCF/LEF: HEK293 cells containing a luciferase downstream TCF/LEF were with LiCl 16 hours prior to treatment to stimulate the Wnt pathway. Then they were treated with recombinant Wnt3a to stimulate transcription and peptide 16 (short) and 2 (long) at 5 μM or BC-2059 at 0.5 μM for 6 hours before luciferase expression was quantified with the One-Step Luciferase assay system.
FIG. 23 presents TOPFlash assay results to determine transcription activity downstream TCF/LEF dependency to peptides: HEK293 cells containing a luciferase downstream TCF/LEF were with LiCl 16 hours prior to treatment to stimulate the Wnt pathway. Then they were treated with recombinant Wnt3a to stimulate transcription and peptide 16 (short) and 2 (long) at different concentrations (300 μM-0.01 μM) for 6 hours before luciferase expression was quantified with the One-Step Luciferase assay system. […]

SW480 (colon cancer) = assay: Cell viability by CellTiter Glo; type: cell-based; settings: 300 μM-0.01 μM for 72 hours, FIG. 24
HCT15 (colon cancer) = assay: Cell viability by CellTiter Glo; type: cell-based; settings: 300 μM-0.01 μM for 72 hours, FIG. 24
H358 (lung cancer) = assay: Cell viability by CellTiter Glo; type: cell-based; settings: 300 μM-0.01 μM for 72 hours, FIG. 24
HCT116 (colon cancer) = assay: Cell viability by CellTiter Glo; type: cell-based; settings: 300 μM-0.01 μM for 72 hours, FIG. 24
TBL1/β-catenin complex = biological target: T1, TBL1/β-catenin complex (Homo sapiens, UniProt O60907); assay: Sandwich ELISA peptide library screening in colon cancer cell lysates; type: binding; settings: screening of individual peptides, FIG. 7
T1 construct: TBL1/β-catenin complex from lysates of a colon cancer cell with active Wnt signaling was captured; endogenous in cells; host or cells: HCT15 and SW480 colon cancer cell lysates, cells pre-treated with 20 mM LiCl
T1 sequence (O60907 1-577): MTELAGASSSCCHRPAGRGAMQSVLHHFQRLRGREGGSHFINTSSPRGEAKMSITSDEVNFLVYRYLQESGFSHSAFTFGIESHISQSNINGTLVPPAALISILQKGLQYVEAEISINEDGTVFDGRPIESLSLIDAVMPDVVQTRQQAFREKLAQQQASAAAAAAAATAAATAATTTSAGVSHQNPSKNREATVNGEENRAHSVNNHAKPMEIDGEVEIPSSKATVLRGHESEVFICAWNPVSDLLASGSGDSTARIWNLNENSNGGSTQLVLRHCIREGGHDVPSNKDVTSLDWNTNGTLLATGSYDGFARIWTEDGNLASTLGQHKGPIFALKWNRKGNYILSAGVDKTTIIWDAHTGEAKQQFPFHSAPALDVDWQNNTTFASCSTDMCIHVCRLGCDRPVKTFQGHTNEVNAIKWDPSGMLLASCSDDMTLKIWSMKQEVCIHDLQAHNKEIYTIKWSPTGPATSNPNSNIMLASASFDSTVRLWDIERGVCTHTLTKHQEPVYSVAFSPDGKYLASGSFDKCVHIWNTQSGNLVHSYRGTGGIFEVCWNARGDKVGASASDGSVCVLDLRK
Procedure: To identify the peptide or peptides able to disrupt the interaction between TBL1 and (3-catenin, the sandwich ELISA approach was used (see FIG. 4). In this assay TBL1/β-catenin complex from lysates of a colon cancer cell with active Wnt signaling was captured in a Protein G ELISA 96-well plate coated with antibody that recognizes TBL1. To ensure activation of Wnt signaling, the cells were pre-treated with 20 mM LiCl for 12 h a 37° C. The bound complex was then exposed to peptides from the library either as single peptides or in a combination of 2 or 3 peptides to ensure coverage of the potential binding site between TBL1 and β-catenin. After washing away unbound proteins, the plates were incubated with β-catenin antibodies labeled with ALEXA FLUOR® 488 dye, and the level of β-catenin associated to TBL1 was quantified by a plate reader that detects the ALEXA FLUOR® 488 fluorescence probe. As a form of TBL1/β-catenin complex, we used colon cancer cell lines HCT15 and SW480. All the experiments were conducted in triplicate to ensure statistical significance. To reduce variability the assays were performed by using the EPMOTION® liquid handler. We designed a program that controls the peptide seeding into the ELISA plate wells: 1, 2 or 3 peptides per well, with overlap of one peptide in each well.
All wells in the screening were loaded with 1 mg/ml of lysate and incubated at 37° C. for 1 hour. After a wash, peptide combinations were added at a concentration of […] for each peptide and incubated at 37° C. for 2 hours followed by β-catenin detection as described. […] The SW480 lysate standard curve was generated by varying the concentration of lysate without any peptides present.
Additional screening was performed with the peptide library using the assay described in Example 2 with the colon cancer cell lines HCT15 and SW480.
Combinations of three peptides were subsequently assayed at varying concentrations to show a dose response in the disruption of the interaction between TBL1 and β-catenin.
To identify the peptide or peptides able to disrupt the interaction between TBL1 and (3-catenin, we tested the Sandwich ELISA approach. In this assay TBL1/β-catenin complex from lysates of colon cancer cell with active Wnt signaling, is captured in Protein G ELISA 96 well plate coated with antibody that recognizes TBL1. To ensure activation of Wnt signaling, the cells are pre-treated with 20 mM LiCl for 12 h a 37° C. The bound complex is then exposed to peptides from the library either as single peptide or in a combination of 2 or 3 peptides to ensure coverage of the potential binding site between TBL1 and β-catenin. After washing away unbound proteins, the plates are incubated with β-catenin antibodies labeled with Alexa Fluor 488 dye, and the level of β-catenin associated to TBL1 is quantified by a plate reader that detects the 488 fluorescence probe. As a font of TBL1/β-catenin complex we used colon cancer cell lines HCT15 and SW480. All the experiments are conducted in triplicated to ensure statistical significance, and to reduce variability we perform the assays by using the EpiMotion liquid handler. We designed a program that controls the peptide seeding into the ELISA plate wells: 1, 2 or 3 peptides per well, with overlap of one peptides in each well.

β-catenin bound to TBL1 = biological target: T2, β-catenin bound to TBL1 (Homo sapiens, UniProt O60907); assay: Pull-down assay with TBL1 in SW480 cells transfected with peptides, Western blot; type: cell-based; settings: FIG. 14
T2 construct: endogenous in cells; host or cells: SW480 colorectal cancer cells (only the peptides and the GFP control were transfected)
T2 sequence (O60907 1-577): T1 sequence (O60907 1-577)
Source text: FIG. 13 depicts a pull-down assay with TBL1 in the SW480 colorectal cancer (CRC) cell line transfected with the selected peptides.
Tegatrabetan (BC2059) is an antagonist of β-Catenin and was used as a positive control in the pull-down experiments. […] Green fluorescent protein (GFP) was also transfected into the SW480 cells as a negative control.

[3] = biological target: T3, TBL1 complex (β-catenin displacement) (Homo sapiens, UniProt O60907); assay: Homologous competitive ELISA with increasing logarithmic peptide concentrations; type: binding; settings: increasing logarithmic concentrations of each peptide, FIG. 11
T3 sequence (O60907 1-577): T1 sequence (O60907 1-577)

[4] = system: β-catenin-mediated transcriptional activation (TCF/LEF); assay: TOPFlash TCF/LEF reporter assay, reporter cells transfected with peptides; type: cell-based
Procedure: FIGS. 15A and 15B depict the results of a TOPFlash TCF/LEF reporter assay monitoring Wnt/β-catenin signaling pathway activity in cells expressing BC2059 (i.e., positive control) and Peptides 1-5.
A TOPFlash TCF/LEF reporter assay was performed with Peptides 1-5 as described in Veeman M T, et al. (2003) Curr Biol. 13(8):680-5. This is a luciferase reporter assay of (3-catenin-mediated transcriptional activation. Tegatrabetan (BC2059) was used as a positive control in the TOPFlash TCF/LEF reporter assay. Briefly, TCF/LEF reporter cells were transfected with the nucleofection kit. After 48 hours, the ONE-STEP™ luciferase assay was performed.

NQESKLIILASGGPQALVNIMRTYTYEKLLWTTSRVLKVLSVCS [Peptide 3, longer peptide; in b127-b129 apparently used as CPP peptide]
blocking transcription downstream TCF/LEF ([1]; conclusion of washout TOPFlash): specific and effective
luciferase produced after washout ([1]; peptide washed out after 8 and 12 hours, compared to the non washout control): increase in luciferase produced
levels of luciferase after treatment [2]: decreased levels of luciferase

VDSVLFYAITTLHNLLLHQEGAKMAVRLAGGLQKMVALLNKTNV [Peptide 2]
cytotoxic effect (cell viability) (SW480 (colon cancer)): cytotoxic effect
cytotoxic effect (cell viability) (HCT15 (colon cancer)): cytotoxic effect
cytotoxic effect (cell viability) (H358 (lung cancer)): cytotoxic effect
cytotoxic effect (cell viability) (HCT116 (colon cancer)): cytotoxic effect

RTMQNTNDVETARCTAGTLH [Pep6]
cytotoxic effect (cell viability) (SW480 (colon cancer)): cytotoxic effect
cytotoxic effect (cell viability) (HCT15 (colon cancer)): cytotoxic effect
cytotoxic effect (cell viability) (H358 (lung cancer)): cytotoxic effect
cytotoxic effect (cell viability) (HCT116 (colon cancer)): cytotoxic effect

LKVLSVCSSNKPAIVEAGGM [Pep18]
disrupting the interaction between TBL1 and β-catenin (TBL1/β-catenin complex): showed efficacy

VVTCAAGILSNLTCNNYKNKMMVCQVGGIEALVRTVLRAGDRED [Peptide 5, longer peptide; in b127 apparently used as CPP peptide]
disrupting the interaction between TBL1 and β-catenin (TBL1/β-catenin complex): showed efficacy
amount of β-catenin bound to TBL1 (β-catenin bound to TBL1): most pronounced effects
levels of luciferase after treatment [2]: decreased levels of luciferase
displacement of β-catenin from the TBL1 complex [3]: able to displace β-catenin from the TBL1 complex in a dose dependent manner

LKVLSVCSSNKPAIVEAGGMQALGLHLTDPSQRLVQNCLWTLRN [Peptide 4]
disrupting the interaction between TBL1 and β-catenin (TBL1/β-catenin complex): showed efficacy
amount of β-catenin bound to TBL1 (β-catenin bound to TBL1): most pronounced effects
displacement of β-catenin from the TBL1 complex [3]: able to displace β-catenin from the TBL1 complex in a dose dependent manner

TYEKLLWTTSRVLKVLSVCS [Pep17]
disrupting the interaction between TBL1 and β-catenin (TBL1/β-catenin complex): showed efficacy

AIVEAGGMQALGLHLTDPSQ [Pep19]
disrupting the interaction between TBL1 and β-catenin (TBL1/β-catenin complex): showed efficacy

HQLSKKEASRHAIMRSPQMVSAIVRTMONTNDVETARCTAGTLH (HQLSKKEASRHAIMRSPQMVSAIVRTMQNTNDVETARCTAGTLH) [Peptide 1, longer peptide, from b112 on]
β-catenin-mediated transcriptional activation (luciferase) ([4]; initial evaluation of all five peptides, 48 hours after transfection, FIG. 15A): significant decrease
β-catenin-mediated transcriptional activation (luciferase) ([4]; second experiment evaluating only Peptide 1, FIG. 15B): confirmed the earlier result

Source: patent publication US20250222062A1, “PEPTIDE INHIBITORS TARGETING THE TBL1-BETA-CATENIN COMPLEX” (THE TRANSLATIONAL GENOMICS RESEARCH INSTITUTE, priority 2022, published 2025)
